Paper PMC10545732, “Structure-based drug discovery of a corticotropin-releasing hormone receptor 1 antagonist using an X-ray free-electron laser” (Experimental & Molecular Medicine, 2023)
Like-named read-outs stand apart in the source and are kept apart here.

Tests used:
[1] = PK studies in rats; type: in vivo, SD rats; details: male, Sprague-Dawley, rat, plasma, SD rats, n = 3
Procedure: CRF1R antagonist PKs were studied in naïve male SD rats following a single i.v. bolus injection or p.o. gavage. The i.v. injections used Antalarmin, BMK-C203, or BMK-C205 at doses of 5 mg/kg and BMK-I-152 at a dose of 1 mg/kg. The antagonist’s doses in the p.o. injection was 10 mg/kg. Three male SD rats weighing between 220 and 260 g were used to evaluate CRF1R antagonist PKs. The vehicle used for all dose groups was […]: TPGS: PEG400 (70%:20%:10%). Blood samples were collected from all treatment groups at 0 h (predose), 0.083, 0.25, 0.5, 1, 2, 4, 6, 8, and 24 h after dosing. Antalarmin, BMK-I-152, BMK-C203, and BMK-C205 concentrations in the plasma samples were determined via LC‒MS/MS (LLOQ was 1 ng/mL for CRF1R antagonists). PK parameter estimates were determined using the serial time-course profiles for plasma concentrations of three male rats per group via noncompartmental analysis using commercially available software (Phoenix WinNonlin, version 8.1, Pharsight Corporation, Mountain View, CA).

[2] = test system: C57BL/6J mice; test: Open field test (OFT); type: in vivo; details: 30 mg/kg orally for 3 days, 1 h open field
Procedure: (§1) C57BL/6J mice (male, 9–10 weeks old) were used for the behavioral tests. All mice were maintained under a 12:12-h light–dark cycle (lights on at 7:00 A.M.) with access to food and water ad libitum. Animal care and handling were performed according to guidelines by the Institutional Animal Care and Use Committee of Yonsei University (Seoul, Korea). Antalarmin, BMK-C203, and BMK-C205 were dissolved in peceol: TPGS: PEG400 (vehicle) (70%:20%:10%, respectively) and administered orally at a dose of 30 mg/kg for 3 days at 24-h intervals. All behavioral tests were conducted 2 h after the third drug was administered during light periods of the circadian cycle. TSTs were performed to verify the effect of CRF1R antagonists on depressive-like behavior. Each mouse was suspended by its tail on a bar 30 cm above the ground for 6 min using adhesive tape. Their movements were recorded by a camera and analyzed using the same parameters via EthoVision XT 8.5 software (Noldus Technologies). Immobility times during the last 4 min of the task were measured. Each mouse was placed in an open field (40 cm × 40 cm × 40 cm chamber) for 1 h to conduct an open field test (OFT) and test locomotion. Their locomotion was recorded and analyzed using EthoVision XT 8.5.

[3] = test system: CORT serum levels; test: Serum CORT level after TST (LC-MS); type: in vivo, mice; details: 30 mg/kg orally for 3 days, immediately after TST
Procedure: (§2) The mice were anesthetized via intraperitoneal injections of 2,2,2-tribromoethanol (300 mg/kg, Sigma-Aldrich) immediately after the TST and before blood from the heart was sampled. Blood samples were collected in plastic tubes and incubated at room temperature for at least 2 h. The sera were extracted after centrifugation at 13,000×g for 10 min at 4 °C. CORT levels were determined via LC‒MS analysis. Serum (10 µL) was mixed with 20 μL of an internal standard solution (d4-cortisol) to prepare the samples. Subsequently, 100 μL of acetonitrile was added, and the mixture was centrifuged at 16,000×g for 10 min for protein precipitation. The supernatants (60 μL) were transferred into an autosampler vial, and 30 μL of water was added for efficient separation via high-performance liquid chromatography (HPLC). LC‒MS was performed with a triple quadrupole mass spectrometer coupled with HPLC using a C18 reversed-phase column. CORT levels were determined using a calibration curve constructed using CORT-spiked mouse serum. Serum samples (20 μL) were analyzed using a commercially available ELISA kit for ACTH (ab263880, Abcam) to measure ACTH serum levels.

[4] = test system: ACTH serum levels; test: Serum ACTH level after TST (ELISA); type: in vivo, mice; details: 30 mg/kg orally for 3 days, immediately after TST
Procedure: as §2

[5] = test system: C57BL/6J mice; test: Tail suspension test (TST); type: in vivo; details: 30 mg/kg orally for 3 days, test 2 h after third dose, last 4 min of 6 min
Procedure: as §1

[6] = target: T1, CRF1R (Homo sapiens, UniProt P34998); test: Calcium mobilization assay (hCRF1R Ca2+ antagonism); type: cell-based; details: for IC50 (in words): reason for not selecting
T1 construct: HEK-Gα15 cells (Eurofins Scientific) transfected with CRF1R; host or cells: HEK-Gα15 cells
T1 sequence (P34998 24-415): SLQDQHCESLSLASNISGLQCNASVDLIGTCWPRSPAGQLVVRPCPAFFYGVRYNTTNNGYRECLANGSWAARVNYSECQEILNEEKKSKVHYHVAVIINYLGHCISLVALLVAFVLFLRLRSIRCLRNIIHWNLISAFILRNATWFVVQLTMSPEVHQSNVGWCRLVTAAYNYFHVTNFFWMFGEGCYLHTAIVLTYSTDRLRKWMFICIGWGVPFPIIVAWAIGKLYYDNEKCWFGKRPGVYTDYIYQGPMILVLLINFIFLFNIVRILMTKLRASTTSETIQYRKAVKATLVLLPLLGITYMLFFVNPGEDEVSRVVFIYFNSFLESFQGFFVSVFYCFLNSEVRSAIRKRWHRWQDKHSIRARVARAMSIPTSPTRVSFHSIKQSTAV
Procedure: HEK-Gα15 cells (Eurofins Scientific) transfected with CRF1R were plated in 96-well plates at a density of 50,000 cells/100 μL per well and incubated overnight. The next day, the cells were incubated with a Calcium 6 reagent (Molecular Devices) containing 0.5 mM probenecid (Sigma) at 37 °C for 1 h before adding compounds or dimethyl sulfoxide DMSO (positive and negative control; final concentration 0.1%). After incubation at 37 °C for 1 h, 50 μL urocortin (final concentration 2 nM) (Tocris) was dispensed into the well with FLIPR-tetra (Molecular Devices). […] Intracellular calcium changes were recorded at excitation and emission wavelengths of 470–495 and 515–575 nm, respectively. Relative fluorescence units (RFU) were calculated as the fluorescence signal maximum minus the signal minimum for 30 s after addition. The graphs and IC50 concentrations were calculated using GraphPad Prism 6 software.

[7] = target: CYP2D6 (Homo sapiens, UniProt P10635); test: CYP inhibition assay CYP2D6 (dextromethorphan O-demethylase); details: 10 μM, human liver microsomes, n = 3
CYP2D6, sequence (P10635 whole entry): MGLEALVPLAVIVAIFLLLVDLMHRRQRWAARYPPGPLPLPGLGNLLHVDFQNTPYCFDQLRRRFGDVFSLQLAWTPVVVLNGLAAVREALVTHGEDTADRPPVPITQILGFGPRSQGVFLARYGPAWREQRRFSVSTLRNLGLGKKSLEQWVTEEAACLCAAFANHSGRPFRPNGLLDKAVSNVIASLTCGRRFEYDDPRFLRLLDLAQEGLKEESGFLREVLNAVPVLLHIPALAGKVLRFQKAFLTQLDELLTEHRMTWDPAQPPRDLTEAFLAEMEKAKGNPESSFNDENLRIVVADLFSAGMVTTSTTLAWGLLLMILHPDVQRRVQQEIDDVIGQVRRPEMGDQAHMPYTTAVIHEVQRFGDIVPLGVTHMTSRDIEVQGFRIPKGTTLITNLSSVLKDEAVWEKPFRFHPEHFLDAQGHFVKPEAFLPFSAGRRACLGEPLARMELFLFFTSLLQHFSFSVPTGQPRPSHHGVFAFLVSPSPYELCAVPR

[8] = target: T2, CYP1A2 (Homo sapiens, UniProt P05177); test: CYP inhibition assay CYP1A2 (phenacetin O-demethylase); type: in vitro ADME
T2 construct: 0.25 mg/mL human liver microsomes; from tissue; host or cells: human liver microsomes
T2 sequence (P05177 1-516): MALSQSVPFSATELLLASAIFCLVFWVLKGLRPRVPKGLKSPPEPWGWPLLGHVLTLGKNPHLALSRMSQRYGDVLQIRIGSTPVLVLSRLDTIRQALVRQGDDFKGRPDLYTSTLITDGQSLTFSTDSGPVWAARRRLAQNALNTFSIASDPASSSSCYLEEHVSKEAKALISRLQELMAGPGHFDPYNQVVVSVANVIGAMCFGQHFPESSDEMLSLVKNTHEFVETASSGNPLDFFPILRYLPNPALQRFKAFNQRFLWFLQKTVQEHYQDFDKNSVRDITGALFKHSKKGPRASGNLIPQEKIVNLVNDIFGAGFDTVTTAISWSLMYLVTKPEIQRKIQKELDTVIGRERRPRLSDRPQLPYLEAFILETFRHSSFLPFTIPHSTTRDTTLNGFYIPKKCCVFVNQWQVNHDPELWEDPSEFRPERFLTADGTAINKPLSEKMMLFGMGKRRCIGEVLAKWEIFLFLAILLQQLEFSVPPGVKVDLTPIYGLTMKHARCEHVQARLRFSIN

[9] = Microsomal stability assay, rat liver microsomes; type: in vitro ADME; details: 1 μM, n = 3
Procedure: The incubation mixtures consisted of 0.5 mg/mL human (Corning, #452117) and rat liver microsomes (Corning, #452701), 0.1 M phosphate buffer (pH 7.4), NADPH regeneration system, and substrates (CRF1R antagonist compounds, 1 µM) in a total volume of 100 μL. […] LC‒MS/MS was performed on a TSQ Vantage (Thermo, USA) coupled with a Nexera XR LC system (Shimadzu, Japan)[32]. The separation was performed on a Kinetex C18 column (2.1 × 100 mm, 2.6 µm, Phenomenex, USA) using a mobile phase of 0.1% formic acid and acetonitrile containing 0.1% formic acid. A gradient program was used for elution at a flow rate of 0.3 mL/min. The data were acquired using multiple-reaction monitoring (MRM) in positive mode. Detection of the ions was performed by monitoring the m/z transition of 494.1 → 336.1 for BMK-I-152, 598.1 → 233.2 for BMK-C203, and 488.1 → 434.1 for BMK-C205.

[10] = target: CYP3A4 (Homo sapiens, UniProt P08684); test: CYP inhibition assay CYP3A4 (midazolam 1'-hydroxylase); details: 10 μM, human liver microsomes, n = 3
CYP3A4, sequence (P08684 whole entry): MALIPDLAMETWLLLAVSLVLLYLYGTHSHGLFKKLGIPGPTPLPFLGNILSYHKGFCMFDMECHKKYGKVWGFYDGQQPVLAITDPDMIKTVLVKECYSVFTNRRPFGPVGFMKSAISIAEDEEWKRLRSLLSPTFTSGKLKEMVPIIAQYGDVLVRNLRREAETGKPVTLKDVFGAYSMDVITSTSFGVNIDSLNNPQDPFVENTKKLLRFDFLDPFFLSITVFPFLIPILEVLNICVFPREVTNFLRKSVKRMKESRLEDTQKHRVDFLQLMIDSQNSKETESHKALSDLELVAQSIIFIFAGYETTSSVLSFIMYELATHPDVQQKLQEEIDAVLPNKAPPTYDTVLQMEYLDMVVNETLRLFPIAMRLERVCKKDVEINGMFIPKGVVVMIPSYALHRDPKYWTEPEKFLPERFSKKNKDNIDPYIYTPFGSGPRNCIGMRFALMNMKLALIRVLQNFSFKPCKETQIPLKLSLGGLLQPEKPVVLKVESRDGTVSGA

[11] = target: CRF1R; parameters: method as in PMID 21308801; details: cited from earlier work
[12] = Microsomal stability assay, human liver microsomes; type: in vitro ADME
Procedure: LC‒MS/MS was performed on a TSQ Vantage (Thermo, USA) coupled with a Nexera XR LC system (Shimadzu, Japan)[32]. The separation was performed on a Kinetex C18 column (2.1 × 100 mm, 2.6 µm, Phenomenex, USA) using a mobile phase of 0.1% formic acid and acetonitrile containing 0.1% formic acid. A gradient program was used for elution at a flow rate of 0.3 mL/min. The data were acquired using multiple-reaction monitoring (MRM) in positive mode.

[13] = target: T3, CYP2C19 (Homo sapiens, UniProt P33261); test: CYP inhibition assay CYP2C19 (S-mephenytoin 4-hydroxylase); type: in vitro ADME
T3 construct: 0.25 mg/mL human liver microsomes; from tissue; host or cells: human liver microsomes
T3 sequence (P33261 whole entry): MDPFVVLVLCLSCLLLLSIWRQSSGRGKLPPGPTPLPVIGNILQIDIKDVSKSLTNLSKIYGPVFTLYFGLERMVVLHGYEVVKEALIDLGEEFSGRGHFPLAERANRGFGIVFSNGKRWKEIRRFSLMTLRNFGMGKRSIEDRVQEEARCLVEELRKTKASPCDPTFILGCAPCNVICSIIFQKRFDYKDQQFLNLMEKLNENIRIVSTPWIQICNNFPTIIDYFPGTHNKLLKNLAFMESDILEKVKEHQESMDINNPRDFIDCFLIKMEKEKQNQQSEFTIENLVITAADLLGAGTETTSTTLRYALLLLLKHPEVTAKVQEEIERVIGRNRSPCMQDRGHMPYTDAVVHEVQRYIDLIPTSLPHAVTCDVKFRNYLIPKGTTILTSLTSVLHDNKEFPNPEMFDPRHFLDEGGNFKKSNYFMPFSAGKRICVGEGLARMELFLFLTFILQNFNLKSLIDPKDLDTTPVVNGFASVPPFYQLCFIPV

[14] = parameters: method as in PMID 21308801; details: liver microsomal stability assay; cited from earlier work
[15] = target: T4, CYP2C9 (Homo sapiens, UniProt P11712); test: CYP inhibition assay CYP2C9 (diclofenac 4-hydroxylase); type: in vitro ADME
T4 construct: 0.25 mg/mL human liver microsomes; from tissue; host or cells: human liver microsomes
T4 sequence (P11712 whole entry): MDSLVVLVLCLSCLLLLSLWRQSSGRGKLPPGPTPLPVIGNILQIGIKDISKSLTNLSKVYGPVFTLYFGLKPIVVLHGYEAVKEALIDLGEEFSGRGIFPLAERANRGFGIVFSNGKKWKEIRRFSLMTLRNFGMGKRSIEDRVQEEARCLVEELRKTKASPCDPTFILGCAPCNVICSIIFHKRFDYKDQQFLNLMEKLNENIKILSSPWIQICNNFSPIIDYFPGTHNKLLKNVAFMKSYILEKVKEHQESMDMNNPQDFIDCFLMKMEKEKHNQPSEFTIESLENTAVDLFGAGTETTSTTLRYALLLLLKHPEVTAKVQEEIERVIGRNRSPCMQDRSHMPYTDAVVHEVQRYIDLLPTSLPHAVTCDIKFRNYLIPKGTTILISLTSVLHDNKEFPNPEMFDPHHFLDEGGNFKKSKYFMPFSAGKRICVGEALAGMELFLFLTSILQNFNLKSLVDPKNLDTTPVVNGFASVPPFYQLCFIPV

[16] = 10 μM, human liver microsomes, n = 3

## CCCCN(CC)c1nc(C)nc2c1c(C)c(C)n2-c1c(C)cc(C)cc1C [Antalarmin, reference compound]
[1]; iv, I.V, 5 mg/kg
  AUC(0-t): 4370 ng·h/mL
  half-life: 3.09 h
[1]; po, P.O, 10 mg/kg
  AUC(0-t): 660 ng·h/mL
  Cmax: 146 ng/mL
  Tmax: 4 h
  bioavailability: 7.6%
  half-life: 4.08 h
[2]
  OFT locomotion / overall moving distance: did not differ among groups
[3]
  serum CORT level versus vehicle: no significant difference
[4]
  serum ACTH level versus vehicle: no significant difference
[5]
  TST immobility time versus vehicle: no significant difference

## CCCCN(CCCC(F)(F)F)c1nc(C)nc2c(-c3c(OC)cc(Br)cc3OC)c(C)nn12 [BMK-C207]
[6]
  IC50 (in words): high IC50 values

## COc1cc(Br)cc(OC)c1-c1c(C)nn2c(N(CCCC(F)(F)F)CC3CC3)nc(C)nc12 [BMK-C209]
[6]
  IC50 (in words): high IC50 values

## CCCN(CCCC(F)(F)F)c1nc(C)nc2c(-c3c(OC)cc(Br)cc3OC)c(C)nn12 [BMK-C210]
[6]
  IC50 (in words): high IC50 values

## COCCN(CCOC)c1nc(C)nc2c(-c3c(OC)cc(Br)cc3OC)c(C)nn12 [BMK-I-152]
[1]; iv, I.V, 1 mg/kg
  AUC(0-t): 913 ng·h/mL
  half-life: 13.5 h
[1]; po, P.O, 10 mg/kg
  AUC(0-t): 3080 ng·h/mL
  Cmax: 267 ng/mL
  Tmax: 6.67 h
  bioavailability: 33.8%
  half-life: 5.66 h
[6]; HEK-Gα15 cells transfected with CRF1R, urocortin 2 nM, n = 3
  IC50: 26 nM
[6]; hCRF1R Ca2+ antagonism assay
  IC50 fold lower than that of Antalarmin: ~12 fold
  IC50 fold lower than that of CP376395: ~ 55 fold
[7]
  CYP2D6, percentage of control activity: > 100 ± 1.6 percentage of control activity
[8]; [16]
  CYP1A2, percentage of control activity: 98.8 ± 1.8 percentage of control activity
[9]
  Liver microsomal stability, Rat (percentage remaining after 30 min): 35.3 ± 5.85%
[10]
  CYP3A4, percentage of control activity: 99.8 ± 3.0 percentage of control activity
[11]
  Ki: 0.35 nM
[12]; 1 μM, n = 3
  Liver microsomal stability, Human (percentage remaining after 30 min): 27.7 ± 3.87%
[12]; in almost all species (human and rat liver microsomes), 30 min
  liver microsomal stability (remaining): below 35%
[13]; [16]
  CYP2C19, percentage of control activity: 83.2 ± 5.0 percentage of control activity
[14]
  half-life: < 0.5 h
[15]; [16]
  CYP2C9, percentage of control activity: 89.9 ± 7.0 percentage of control activity

## CC(=O)N1CCN(c2ccc(OCC3COC(Cn4ccnc4)(c4ccc(Cl)cc4Cl)O3)cc2)CC1 (stereo not shown) [Ketoconazole, reference compound]
[8]; reference chemical at 0.1 μM
  CYP1A2, percentage of control activity: 94.3 ± 5.3 percentage of control activity
[13]; reference chemical at 0.1 μM
  CYP2C19, percentage of control activity: > 100 ± 12.9 percentage of control activity
[15]; reference chemical at 0.1 μM
  CYP2C9, percentage of control activity: 94.0 ± 9.2 percentage of control activity
